Bounds are passed on as bounds.

One assay deals with PI3Kα (Homo sapiens, UniProt P42336). Description: ADP-Glo kinase assay, in vitro inhibition of PI3Kα kinase activity. Format: biochemical. Conditions: 25 μM ATP, PIP2 50 μg/mL, room temperature 1 h, read-out: Inhibitory activity against PI3K kinases, PI3Kα (IC50). The protocol:
(§1) Biological Example 1. Assay for In Vitro Inhibition of PI3Kα, PI3Kβ, PI3Kγ, and PI3Kδ Kinase Activity by Compounds of the Present Disclosure
(§2) The experiment was performed using the ADP-Glo Kinase Assay kit according to the instructions. The following buffer solution was prepared: 50 mM HEPES, pH 7.5, 3 mM MgCl2, 1 mM EGTA, 100 mM NaCl, 0.03% CHAPS, 2 mM DTT. Test compound samples were dissolved in DMSO, diluted 3-fold at a starting concentration, e.g., 10 μM, and added to the screening system. A DMSO control and a kinase-free control were set simultaneously. The optimal concentrations of PI3Kα, PI3Kδ, PI3Kβ, and PI3Kγ enzymes, substrate (PIP2), and ATP were prepared with buffer. The enzyme reaction system contained: buffer, 25 μM ATP, kinase substrate (PIP2, 50 μg/mL), and kinases PI3Kα (0.15 μg/mL), PI3Kδ (1.2 μg/mL), PI3Kβ (0.3 μg/mL), PI3Kγ (2.5 μg/mL), and the like. The reaction system was reacted at room temperature for 1 h. The reaction was terminated by adding a termination reagent (ADP-Glo reagent, 5 μL), and the ADP content in the system was detected using a detection reagent (Kinase Detection Reagent, 10 μL). Signal data were collected using an Envision instrument. The inhibition rate was calculated according to the following equation: % inhibition=(DMSO control signal value−sample signal value)/(DMSO control signal value−kinase-free control signal value). The IC50 values were obtained by fitting a curve using the equation: Y=Bottom+(Top−Bottom)/(1+(IC50/X)^HillSlope).
(ADP-Glo turns the ADP formed in a reaction into a luminescent signal.)

For the next assay, the target named is PI3Kβ (Homo sapiens, UniProt P42338). Briefly: ADP-Glo kinase assay, in vitro inhibition of PI3Kβ kinase activity. Format: biochemical. Conditions: 25 μM ATP, PIP2 50 μg/mL, room temperature 1 h, read-out: Inhibitory activity against PI3K kinases, PI3Kβ (IC50). The protocol:
as §1, §2

The next assay addresses PI3Kγ (Homo sapiens, UniProt P48736). Description: ADP-Glo kinase assay, in vitro inhibition of PI3Kγ kinase activity. Conditions: 25 μM ATP, PIP2 50 μg/mL, room temperature 1 h, read-out: Inhibitory activity against PI3K kinases, PI3Kγ (IC50). The class given is biochemical. Here is the method:
as §1, §2

Another assay concerns the target PI3Kδ (Homo sapiens, UniProt O00329). Briefly: ADP-Glo kinase assay, in vitro inhibition of PI3Kδ kinase activity. The conditions noted are these: 25 μM ATP, PIP2 50 μg/mL, room temperature 1 h, read-out: Inhibitory activity against PI3K kinases, PI3Kδ (IC50). The class given is biochemical. The protocol: as §1, §2
Assay [1] deals with HCC1954 cells (with PI3Kα H1047R mutation). Description: In vitro inhibition of HCC1954 cell proliferation (CellTiter-Lumi). The class given is cell-based. The conditions noted are these: Homo sapiens, HCC1954, 144 h, HCC1954 cells, 144 h, CellTiter-Lumi; numeric values; read-out: Inhibitory activity against HCC1954 cells (IC50). The protocol: Assay for In Vitro Inhibition of HCC1954 Cell Proliferation by Compounds of the Present Disclosure
The growth of the cells was evaluated, and the IC50 for the inhibition of cell growth by the compounds was calculated.

Assay [2] has as its system MCF-7 cells (with PI3Kα E545K mutation). Description: In vitro inhibition of MCF-7 cell proliferation (CellTiter-Lumi). The class given is cell-based. The conditions noted are these: Homo sapiens, MCF7, 144 h, numeric values, read-out: Inhibitory activity against MCF-7 cells (IC50). In short, it runs like this: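 Growth IC50 derived from ATP luminescence (CellTiter-Lumi) after 144 h exposure of MCF-7 cells carrying PI3Kα E545K, plated 2000 cells/well and dosed with serial dilutions one day after seeding.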

Chain of PI3Kγ (P48736 whole entry, species assumed): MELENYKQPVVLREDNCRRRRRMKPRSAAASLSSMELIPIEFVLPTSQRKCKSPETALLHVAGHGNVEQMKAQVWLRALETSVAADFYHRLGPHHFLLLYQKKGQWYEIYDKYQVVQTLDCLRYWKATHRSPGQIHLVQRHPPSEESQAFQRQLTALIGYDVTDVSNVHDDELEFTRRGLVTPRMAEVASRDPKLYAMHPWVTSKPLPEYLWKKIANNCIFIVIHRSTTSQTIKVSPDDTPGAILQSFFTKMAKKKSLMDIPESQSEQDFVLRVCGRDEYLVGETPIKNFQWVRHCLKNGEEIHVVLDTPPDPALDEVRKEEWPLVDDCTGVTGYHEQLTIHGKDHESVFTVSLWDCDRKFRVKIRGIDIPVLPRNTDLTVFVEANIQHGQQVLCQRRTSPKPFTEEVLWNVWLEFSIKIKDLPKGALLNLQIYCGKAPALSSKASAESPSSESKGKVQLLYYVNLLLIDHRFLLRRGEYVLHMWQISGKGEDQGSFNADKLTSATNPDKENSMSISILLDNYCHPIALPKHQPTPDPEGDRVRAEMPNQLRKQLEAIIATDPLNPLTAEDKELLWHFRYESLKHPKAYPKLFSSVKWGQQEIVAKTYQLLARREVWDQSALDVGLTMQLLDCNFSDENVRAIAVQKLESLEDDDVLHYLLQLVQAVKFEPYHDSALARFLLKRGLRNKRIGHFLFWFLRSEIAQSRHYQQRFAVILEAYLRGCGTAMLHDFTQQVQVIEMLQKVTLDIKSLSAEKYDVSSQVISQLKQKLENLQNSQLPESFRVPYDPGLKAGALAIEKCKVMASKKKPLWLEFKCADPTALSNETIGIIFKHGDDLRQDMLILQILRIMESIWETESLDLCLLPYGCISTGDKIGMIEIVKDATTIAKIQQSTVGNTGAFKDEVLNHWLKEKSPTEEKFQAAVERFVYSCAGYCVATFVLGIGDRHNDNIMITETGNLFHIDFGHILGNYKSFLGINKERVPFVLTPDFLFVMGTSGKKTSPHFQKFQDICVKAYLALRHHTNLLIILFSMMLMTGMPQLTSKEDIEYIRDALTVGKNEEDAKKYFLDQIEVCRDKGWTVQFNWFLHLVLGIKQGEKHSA
Chain of PI3Kβ (P42338 whole entry, species assumed): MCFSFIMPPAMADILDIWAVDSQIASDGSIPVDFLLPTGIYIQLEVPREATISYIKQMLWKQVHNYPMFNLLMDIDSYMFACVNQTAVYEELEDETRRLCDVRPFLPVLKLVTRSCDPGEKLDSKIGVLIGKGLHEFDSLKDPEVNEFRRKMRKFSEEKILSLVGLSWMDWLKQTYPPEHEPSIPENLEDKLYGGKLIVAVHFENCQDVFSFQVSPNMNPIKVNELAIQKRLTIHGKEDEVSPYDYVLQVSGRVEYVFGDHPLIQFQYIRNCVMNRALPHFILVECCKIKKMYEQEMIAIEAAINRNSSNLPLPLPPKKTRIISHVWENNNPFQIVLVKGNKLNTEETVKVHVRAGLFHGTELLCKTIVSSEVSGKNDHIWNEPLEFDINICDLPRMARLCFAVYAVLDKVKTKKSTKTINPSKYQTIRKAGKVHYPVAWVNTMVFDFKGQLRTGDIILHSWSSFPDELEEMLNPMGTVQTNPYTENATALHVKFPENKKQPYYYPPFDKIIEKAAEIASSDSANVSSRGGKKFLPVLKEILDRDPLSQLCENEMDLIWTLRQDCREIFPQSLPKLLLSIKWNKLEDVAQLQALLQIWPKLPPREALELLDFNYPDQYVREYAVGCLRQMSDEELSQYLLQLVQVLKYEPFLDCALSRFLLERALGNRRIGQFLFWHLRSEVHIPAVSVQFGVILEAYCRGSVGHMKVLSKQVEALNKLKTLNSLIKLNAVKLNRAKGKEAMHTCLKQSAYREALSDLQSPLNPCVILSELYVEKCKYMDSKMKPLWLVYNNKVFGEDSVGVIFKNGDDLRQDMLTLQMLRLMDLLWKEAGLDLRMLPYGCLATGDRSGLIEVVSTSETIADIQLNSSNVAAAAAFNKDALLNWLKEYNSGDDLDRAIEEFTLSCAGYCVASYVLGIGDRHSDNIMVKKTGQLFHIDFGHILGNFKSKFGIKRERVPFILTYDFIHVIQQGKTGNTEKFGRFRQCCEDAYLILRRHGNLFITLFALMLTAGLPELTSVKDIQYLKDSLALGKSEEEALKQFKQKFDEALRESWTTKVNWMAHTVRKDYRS
Chain of PI3Kβ (P27986 whole entry partner, species assumed): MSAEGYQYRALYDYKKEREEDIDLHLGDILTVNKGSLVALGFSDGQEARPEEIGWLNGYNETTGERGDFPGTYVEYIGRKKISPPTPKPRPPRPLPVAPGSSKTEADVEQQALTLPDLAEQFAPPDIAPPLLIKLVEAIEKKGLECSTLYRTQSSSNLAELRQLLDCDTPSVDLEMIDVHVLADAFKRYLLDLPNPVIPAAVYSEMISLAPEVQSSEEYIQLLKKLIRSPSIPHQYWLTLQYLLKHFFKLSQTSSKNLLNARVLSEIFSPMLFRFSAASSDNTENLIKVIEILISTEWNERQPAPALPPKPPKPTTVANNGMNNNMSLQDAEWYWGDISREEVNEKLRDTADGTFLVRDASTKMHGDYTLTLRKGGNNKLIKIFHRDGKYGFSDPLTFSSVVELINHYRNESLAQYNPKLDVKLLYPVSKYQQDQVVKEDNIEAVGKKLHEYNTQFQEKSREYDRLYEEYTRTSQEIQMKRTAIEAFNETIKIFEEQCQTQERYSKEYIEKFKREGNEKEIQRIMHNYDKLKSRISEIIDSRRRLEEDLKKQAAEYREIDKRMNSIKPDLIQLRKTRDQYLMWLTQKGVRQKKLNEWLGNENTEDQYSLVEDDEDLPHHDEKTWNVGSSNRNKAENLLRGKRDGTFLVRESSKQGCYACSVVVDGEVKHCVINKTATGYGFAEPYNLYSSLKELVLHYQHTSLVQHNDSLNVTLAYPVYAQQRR
Chain of PI3Kδ (O00329 whole entry, species assumed): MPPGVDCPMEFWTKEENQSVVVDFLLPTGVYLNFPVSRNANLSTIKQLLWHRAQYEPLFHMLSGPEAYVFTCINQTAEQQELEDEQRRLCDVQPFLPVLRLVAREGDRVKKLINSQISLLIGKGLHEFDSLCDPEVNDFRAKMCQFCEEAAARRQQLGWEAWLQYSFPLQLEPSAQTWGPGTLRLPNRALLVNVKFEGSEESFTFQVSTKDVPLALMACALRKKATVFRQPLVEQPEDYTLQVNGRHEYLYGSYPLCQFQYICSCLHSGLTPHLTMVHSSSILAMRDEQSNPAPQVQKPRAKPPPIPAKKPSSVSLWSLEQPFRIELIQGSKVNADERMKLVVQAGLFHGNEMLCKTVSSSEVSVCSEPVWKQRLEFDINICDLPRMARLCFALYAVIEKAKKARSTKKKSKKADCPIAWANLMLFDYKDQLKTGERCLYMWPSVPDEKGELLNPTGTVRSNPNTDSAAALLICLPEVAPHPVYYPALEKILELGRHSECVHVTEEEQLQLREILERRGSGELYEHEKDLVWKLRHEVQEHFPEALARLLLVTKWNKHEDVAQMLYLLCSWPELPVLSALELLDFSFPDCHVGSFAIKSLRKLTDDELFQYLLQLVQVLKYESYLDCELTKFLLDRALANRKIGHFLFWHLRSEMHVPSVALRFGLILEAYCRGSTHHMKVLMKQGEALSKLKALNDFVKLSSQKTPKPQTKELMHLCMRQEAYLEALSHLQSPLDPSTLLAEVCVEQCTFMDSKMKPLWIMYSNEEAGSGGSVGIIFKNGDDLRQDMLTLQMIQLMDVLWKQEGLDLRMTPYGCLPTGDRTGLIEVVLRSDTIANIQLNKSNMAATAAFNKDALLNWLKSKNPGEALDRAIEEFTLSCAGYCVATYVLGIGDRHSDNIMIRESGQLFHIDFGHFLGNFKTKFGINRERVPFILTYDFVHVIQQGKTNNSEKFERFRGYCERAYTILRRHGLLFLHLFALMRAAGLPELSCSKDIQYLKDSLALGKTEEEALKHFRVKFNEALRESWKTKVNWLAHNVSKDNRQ
Chain of PI3Kδ (P27986 whole entry partner, species assumed): as the sequence (P27986 whole entry partner, species assumed) above
Chain of PI3Kα (P42336 whole entry): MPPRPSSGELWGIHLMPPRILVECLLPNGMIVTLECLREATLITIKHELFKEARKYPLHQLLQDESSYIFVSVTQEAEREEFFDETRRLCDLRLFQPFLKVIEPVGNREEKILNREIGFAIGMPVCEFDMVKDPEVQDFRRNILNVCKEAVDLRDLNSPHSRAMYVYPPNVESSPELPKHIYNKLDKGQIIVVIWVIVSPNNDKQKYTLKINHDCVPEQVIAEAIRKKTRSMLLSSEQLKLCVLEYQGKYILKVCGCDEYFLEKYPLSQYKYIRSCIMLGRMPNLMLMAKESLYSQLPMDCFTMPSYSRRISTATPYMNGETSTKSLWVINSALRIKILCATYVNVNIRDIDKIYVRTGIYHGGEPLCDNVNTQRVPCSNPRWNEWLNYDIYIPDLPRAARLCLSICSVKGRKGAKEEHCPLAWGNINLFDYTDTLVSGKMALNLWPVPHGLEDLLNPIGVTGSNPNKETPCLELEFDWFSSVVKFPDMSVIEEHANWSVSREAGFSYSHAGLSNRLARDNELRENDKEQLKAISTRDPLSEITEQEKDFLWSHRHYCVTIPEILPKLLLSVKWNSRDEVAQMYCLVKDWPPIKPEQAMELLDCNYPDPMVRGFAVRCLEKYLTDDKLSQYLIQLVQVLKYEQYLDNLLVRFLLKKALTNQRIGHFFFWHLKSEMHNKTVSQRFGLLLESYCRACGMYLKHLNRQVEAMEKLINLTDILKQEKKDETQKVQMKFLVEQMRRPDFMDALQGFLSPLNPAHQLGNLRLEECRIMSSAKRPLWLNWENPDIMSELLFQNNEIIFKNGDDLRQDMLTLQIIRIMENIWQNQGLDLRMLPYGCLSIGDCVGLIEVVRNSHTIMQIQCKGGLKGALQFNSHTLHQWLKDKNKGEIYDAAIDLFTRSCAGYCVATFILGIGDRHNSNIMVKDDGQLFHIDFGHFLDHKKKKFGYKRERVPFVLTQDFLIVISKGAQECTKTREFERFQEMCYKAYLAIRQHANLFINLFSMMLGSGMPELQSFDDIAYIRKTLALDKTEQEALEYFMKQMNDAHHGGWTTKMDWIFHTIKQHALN
Chain of PI3Kα (P27986 whole entry partner): as the sequence (P27986 whole entry partner, species assumed) above

`C=CC(=O)N1CC[C@@H](C(=O)NCC(=O)N2CCN(c3ccc4c(c3)-c3nc(N5C(=O)OC[C@H]5C(F)F)cn3CCO4)CC2)C1` [Compound 2]: the IC50 (commonly the point on the concentration scale where inhibition reaches its midpoint) is 7.3 nM on PI3Kα; 513 nM on PI3Kβ; 44 nM at PI3Kγ; 20 nM at PI3Kδ; 97 nM in assay [1]; 28 nM in assay [2].
On to `C=CC(=O)Nc1ccc(CC(=O)N2CCN(c3ccc4c(c3)-c3nc(N5C(=O)OC[C@H]5C(F)F)cn3CCO4)CC2)cc1` [Compound 1], for which the half-maximal inhibitory concentration (IC50) at PI3Kα is 5.4 nM; on PI3Kβ, 317 nM; at PI3Kγ it was 21 nM; on PI3Kδ, below 8 nM; in assay [1], 103 nM; in assay [2], 18 nM.
`C=CC(=O)Nc1ccc(N2CC(CN3CCN(c4ccc5c(c4)-c4nc(N6C(=O)OC[C@H]6C(F)F)cn4CCO5)CC3)C2)cc1` [Compound 4]: the IC50 at PI3Kα stood at 7.4 nM; on PI3Kβ, 315 nM; at PI3Kγ, 98 nM; at PI3Kδ, 43 nM; in assay [1], 65 nM; in assay [2], 26 nM.
Consider `CN(C1COC1)C(C)(C)/C=C(\C#N)C(=O)Nc1ccc(N2CC(N3CCN(c4ccc5c(c4)-c4nc(N6C(=O)OC[C@H]6C(F)F)cn4CCO5)CC3)C2)cc1` [Compound 95], for which the IC50 at PI3Kα turned out to be 0.16 nM; at PI3Kβ, 1090 nM; on PI3Kγ it was 42 nM; at PI3Kδ, 103 nM; in assay [1], 68 nM; in assay [2], 38 nM.
